# Patent publication US8088815B2, “Spiroindolinone pyrrolidines” (Hoffman-La Roche Inc., priority 2009, dated 2012)
# pIC50: −log10 of the molar value.
# Biological target: interaction between p53 and MDM2 proteins (Homo sapiens, UniProt Q00987)
# Experiment: HTRF assay of inhibition of the p53-MDM2 interaction (GST-MDM2 / biotinylated p53 peptide)
# Type: binding
# Conditions: recombinant GST-tagged MDM2 and biotinylated p53 peptide, bsa:0.02%
# Protocol: The ability of the compounds to inhibit the interaction between p53 and MDM2 proteins was measured by an HTRF (homogeneous time-resolved fluorescence) assay in which recombinant GST-tagged MDM2 binds to a peptide that resembles the MDM2-interacting region of p53. Binding of GST-MDM2 protein and p53-peptide (biotinylated on its N-terminal end) is registered by the FRET (fluorescence resonance energy transfer) between Europium (Eu)-labeled anti-GST antibody and streptavidin-conjugated Allophycocyanin (APC).
# Add 10 uL diluted compounds (1:5 dilution in reaction buffer) to each well, mix by shaking. Add 20 uL biotinylated p53 peptide (180 nM working solution) in reaction buffer to each well and mix on shaker. Incubate at 37° C. for 1 h. Add 20 uL streptavidin-APC and Eu-anti-GST antibody mixture (6 nM Eu-anti-GST and 60 nM streptavidin-APC working solution) in TBS buffer with 0.2% BSA, shake at room temperature for 30 minutes and read using a TRF-capable plate reader at
# 665 and 615 nm (Victor 5, Perkin ElmerWallac). If not specified, the reagents were purchased from Sigma Chemical Co.
# Chain of interaction between p53 and MDM2 proteins (Q00987 whole entry): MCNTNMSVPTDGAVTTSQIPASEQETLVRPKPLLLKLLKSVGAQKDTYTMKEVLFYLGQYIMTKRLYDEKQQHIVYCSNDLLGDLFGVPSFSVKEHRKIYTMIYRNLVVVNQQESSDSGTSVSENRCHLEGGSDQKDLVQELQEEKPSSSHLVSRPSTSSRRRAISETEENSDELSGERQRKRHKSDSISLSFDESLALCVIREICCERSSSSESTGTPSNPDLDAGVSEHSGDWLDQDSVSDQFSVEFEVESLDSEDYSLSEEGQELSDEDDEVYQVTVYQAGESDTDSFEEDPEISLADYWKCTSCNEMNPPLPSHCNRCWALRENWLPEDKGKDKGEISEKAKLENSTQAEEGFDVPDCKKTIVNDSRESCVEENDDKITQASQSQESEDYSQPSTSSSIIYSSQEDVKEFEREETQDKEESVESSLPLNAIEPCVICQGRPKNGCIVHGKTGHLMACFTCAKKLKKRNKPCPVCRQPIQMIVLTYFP
row,Structure (SMILES),pIC50
1,"COc1cc(C(N)=O)ccc1NC(=O)[C@@H]1N[C@@H](CC(C)(C)C)[C@@]2(C(=O)Nc3cc(Cl)ccc32)[C@H]1c1cccc(Cl)c1 (racemic) [Example 67, rac-(2′S,3′R,4′R,5′R)-6-chloro-4′-(3-chloro-phenyl)-2′-(2,2-dimethyl-propyl)-2-oxo-1,2-dihydro-spiro[indole-3,3′-pyrrolidine]-5′-carboxylic acid (4-carbamoyl-2-methoxy-phenyl)-amide]",8.00
2,"CC(C)(C)C[C@@H]1N[C@@H](C(=O)Nc2ccc(C#N)cc2)[C@H](c2cccc(Cl)c2F)[C@]12C(=O)Nc1cc(Cl)cc(F)c12 (racemic) [Example 72, rac-(2′S,3′R,4′S,5′R)-6-chloro-4′-(3-chloro-2-fluoro-phenyl)-2′-(2,2-dimethyl-propyl)-4-fluoro-2-oxo-1,2-dihydro-spiro[indole-3,3′-pyrrolidine]-5′-carboxylic acid (4-cyano-phenyl)-amide]",7.66
3,"CC(C)(C)C[C@@H]1N[C@@H](C(=O)Nc2ccc(C(N)=O)cc2)[C@H](c2cccc(Cl)c2F)[C@]12C(=O)Nc1cc(Cl)cc(F)c12 (racemic) [Example 73, rac-(2′S,3′R,4′S,5′R)-6-chloro-4′-(3-chloro-2-fluoro-phenyl)-2′-(2,2-dimethyl-propyl)-4-fluoro-2-oxo-1,2-dihydro-spiro[indole-3,3′-pyrrolidine]-5′-carboxylic acid (4-carbamoyl-phenyl)-amide]",7.96
4,"COc1cc(C#N)ccc1NC(=O)[C@@H]1N[C@@H](CC(C)(C)C)[C@@]2(C(=O)Nc3cc(Cl)cc(F)c32)[C@H]1c1cccc(Cl)c1F (racemic) [Example 75, rac-(2′S,3′R,4′S,5′R)-6-chloro-4′-(3-chloro-2-fluoro-phenyl)-2′-(2,2-dimethyl-propyl)-4-fluoro-2-oxo-1,2-dihydro-spiro[indole-3,3′-pyrrolidine]-5′-carboxylic acid (4-cyano-2-methoxy-phenyl)-amide]",7.70
5,"COc1cc(C(N)=O)ccc1NC(=O)[C@@H]1N[C@@H](CC(C)(C)C)[C@@]2(C(=O)Nc3cc(Cl)cc(F)c32)[C@H]1c1cccc(Cl)c1F (racemic) [Example 76, rac-(2′S,3′R,4′S,5′R)-6-chloro-4′-(3-chloro-2-fluoro-phenyl)-2′-(2,2-dimethyl-propyl)-4-fluoro-2-oxo-1,2-dihydro-spiro[indole-3,3′-pyrrolidine]-5′-carboxylic acid (4-carbamoyl-2-methoxy-phenyl)-amide]",7.96
6,"CC(C)(C)C[C@@H]1N[C@@H](C(=O)Nc2ccc(C(N)=O)cc2F)[C@H](c2cccc(Cl)c2F)[C@]12C(=O)Nc1cc(Cl)cc(F)c12 (racemic) [Example 79, rac-(2′S,3′R,4′S,5′R)-6-chloro-4′-(3-chloro-2-fluoro-phenyl)-2′-(2,2-dimethyl-propyl)-4-fluoro-2-oxo-1,2-dihydro-spiro[indole-3,3′-pyrrolidine]-5′-carboxylic acid (4-carbamoyl-2-fluoro-phenyl)-amide]",7.89
7,"CC(C)(C)C[C@@H]1N[C@@H](C(=O)Nc2ccc(C#N)cc2)[C@H](c2ccc(F)c(Cl)c2)[C@]12C(=O)Nc1cc(Cl)ccc12 (racemic) [Example 83, rac-(2′S,3′R,4′R,5′R)-6-chloro-4′-(3-chloro-4-fluoro-phenyl)-2′-(2,2-dimethyl-propyl)-2-oxo-1,2-dihydro-spiro[indole-3,3′-pyrrolidine]-5′-carboxylic acid (4-cyano-phenyl)-amide]",7.47
8,"CC(C)(C)C[C@@H]1N[C@@H](C(=O)Nc2ccc(C(N)=O)cc2)[C@H](c2ccc(F)c(Cl)c2)[C@]12C(=O)Nc1cc(Cl)ccc12 (racemic) [Example 84, rac-(2′S,3′R,4′R,5′R)-6-chloro-4′-(3-chloro-4-fluoro-phenyl)-2′-(2,2-dimethyl-propyl)-2-oxo-1,2-dihydro-spiro[indole-3,3′-pyrrolidine]-5′-carboxylic acid (4-carbamoyl-phenyl)-amide]",7.82
9,"CC(C)(C)C[C@@H]1N[C@@H](C(=O)Nc2ccc(C#N)cc2)[C@H](c2cc(F)cc(Cl)c2)[C@]12C(=O)Nc1cc(Cl)ccc12 (racemic) [Example 88, rac-(2′S,3′R,4′R,5′R)-6-chloro-4′-(3-chloro-5-fluoro-phenyl)-2′-(2,2-dimethyl-propyl)-2-oxo-1,2-dihydro-spiro[indole-3,3′-pyrrolidine]-5′-carboxylic acid (4-cyano-phenyl)-amide]",7.89
10,CC(C)(C)C[C@@H]1N[C@@H](C(=O)Nc2ccc(C(N)=O)cc2)[C@H](c2cc(F)cc(Cl)c2)[C@]12C(=O)Nc1cc(Cl)ccc12 (racemic) [Example 89],7.89
11,"CC(C)(C)C[C@@H]1N[C@@H](C(=O)Nc2ccc(C(N)=O)cc2)[C@H](c2cccc(Cl)c2F)[C@]12C(=O)Nc1cc(Br)ccc12 (racemic) [Example 94, rac-(2′S,3′R,4′S,5′R)-6-bromo-4′-(3-chloro-2-fluoro-phenyl)-2′-(2,2-dimethyl-propyl)-2-oxo-1,2-dihydro-spiro[indole-3,3′-pyrrolidine]-5′-carboxylic acid (4-carbamoyl-phenyl)-amide]",7.92
12,"CC(C)(C)C[C@@H]1N[C@@H](C(=O)Nc2ccc(C#N)cc2)[C@H](c2cccc(Br)c2F)[C@]12C(=O)Nc1cc(Cl)ccc12 (racemic) [Example 98, rac-(2′S,3′R,4′S,5′R)-4′-(3-bromo-2-fluoro-phenyl)-6-chloro-2′-(2,2-dimethyl-propyl)-2-oxo-1,2-dihydro-spiro[indole-3,3′-pyrrolidine]-5′-carboxylic acid (4-cyano-phenyl)-amide]",7.74
13,"CC(C)(C)C[C@@H]1N[C@@H](C(=O)Nc2ccc(C(N)=O)cc2)[C@H](c2cccc(Br)c2F)[C@]12C(=O)Nc1cc(Cl)ccc12 (racemic) [Example 99, rac-(2′S,3′R,4′S,5′R)-4′-(3-bromo-2-fluoro-phenyl)-6-chloro-2′-(2,2-dimethyl-propyl)-2-oxo-1,2-dihydro-spiro[indole-3,3′-pyrrolidine]-5′-carboxylic acid (4-carbamoyl-phenyl)-amide]",7.74
14,"CC(=O)OCC(C)(C)C[C@@H]1N[C@@H](C(=O)Nc2ccc(C#N)cc2)[C@H](c2cccc(Cl)c2F)[C@]12C(=O)Nc1cc(Cl)ccc12 (racemic) [Example 104, acetic acid rac-3-[(2′S,3′R,4′S,5′R)-6-chloro-4′-(3-chloro-2-fluoro-phenyl)-5′-(4-cyano-phenylcarbamoyl)-2-oxo-1,2-dihydro-spiro[indole-3,3′-pyrrolidin]-2′-yl]-2,2-dimethyl-propyl ester]",7.92
15,"CC(C)(CO)C[C@@H]1N[C@@H](C(=O)Nc2ccc(C#N)cc2)[C@H](c2cccc(Cl)c2F)[C@]12C(=O)Nc1cc(Cl)ccc12 (racemic) [Example 105, rac-(2′S,3′R,4′S,5′R)-6-chloro-4′-(3-chloro-2-fluoro-phenyl)-2′-(3-hydroxy-2,2-dimethyl-propyl)-2-oxo-1,2-dihydro-spiro[indole-3,3′-pyrrolidine]-5′-carboxylic acid (4-cyano-phenyl)-amide]",7.89
16,"CC(C)(CO)C[C@@H]1N[C@@H](C(=O)Nc2ccc(C(N)=O)cc2)[C@H](c2cccc(Cl)c2F)[C@]12C(=O)Nc1cc(Cl)ccc12 (racemic) [Example 106, rac-(2′S,3′R,4′S,5′R)-6-chloro-4′-(3-chloro-2-fluoro-phenyl)-2′-(3-hydroxy-2,2-dimethyl-propyl)-2-oxo-1,2-dihydro-spiro[indole-3,3′-pyrrolidine]-5′-carboxylic acid (4-carbamoyl-phenyl)-amide]",8.05
17,"COC(=O)c1ccc(NC(=O)[C@@H]2N[C@@H](CC(C)(C)C)[C@@]3(C(=O)Nc4cc(Cl)ccc43)[C@H]2c2cccc(Cl)c2)c(OC)c1 (racemic) [Example 107, rac-4-{[(2′S,3′R,4′R,5′R)-6-chloro-4′-(3-chloro-phenyl)-2′-(2,2-dimethyl-propyl)-2-oxo-1,2-dihydro-spiro[indole-3,3′-pyrrolidine]-5′-carbonyl]-amino}-3-methoxy-benzoic acid methyl ester]",7.77
18,"COc1cc(C(=O)O)ccc1NC(=O)[C@@H]1N[C@@H](CC(C)(C)C)[C@@]2(C(=O)Nc3cc(Cl)ccc32)[C@H]1c1cccc(Cl)c1 (racemic) [Example 108, rac-4-{[(2′S,3′R,4′R,5′R)-6-chloro-4′-(3-chloro-phenyl)-2′-(2,2-dimethyl-propyl)-2-oxo-1,2-dihydro-spiro[indole-3,3′-pyrrolidine]-5′-carbonyl]amino}-3-methoxy-benzoic acid]",8.05
19,"COC(=O)c1ccc(NC(=O)[C@@H]2N[C@@H](CC(C)(C)C)[C@@]3(C(=O)Nc4cc(Cl)ccc43)[C@H]2c2cccc(Cl)c2F)c(OC)c1 (racemic) [Example 109, rac-4-{[(2′S,3′R,4′S,5′R)-6-chloro-4′-(3-chloro-2-fluoro-phenyl)-2′-(2,2-dimethyl-propyl)-2-oxo-1,2-dihydro-spiro[indole-3,3′-pyrrolidine]-5′-carbonyl]amino}-3-methoxy-benzoic acid methyl ester]",7.96
20,"COc1cc(C(=O)O)ccc1NC(=O)[C@@H]1N[C@@H](CC(C)(C)C)[C@@]2(C(=O)Nc3cc(Cl)ccc32)[C@H]1c1cccc(Cl)c1F (racemic) [Example 110, rac-4-{[(2′S,3′R,4′S,5′R)-6-chloro-4′-(3-chloro-2-fluoro-phenyl)-2′-(2,2-dimethyl-propyl)-2-oxo-1,2-dihydro-spiro[indole-3,3′-pyrrolidine]-5′-carbonyl]-amino}-3-methoxy-benzoic acid]",7.96
